Each compound was assayed against T1, PDZ1 domain of MDA-9/Syntenin (PDZ12) (Homo sapiens, UniProt O00560) (assay: [15N,1H] HSQC chemical shift change ranking of compound affinity). Conditions: chemical shift changes (DPPM) of backbone amide of residue 147, 50 μM PDZ12, compound at 1:1 molar ratio.
T1 construct: HSQC spectrum of 50 μM PDZ12 caused by compound at 1:1 molar ratio
T1 sequence (O00560 110-273 limits assumed): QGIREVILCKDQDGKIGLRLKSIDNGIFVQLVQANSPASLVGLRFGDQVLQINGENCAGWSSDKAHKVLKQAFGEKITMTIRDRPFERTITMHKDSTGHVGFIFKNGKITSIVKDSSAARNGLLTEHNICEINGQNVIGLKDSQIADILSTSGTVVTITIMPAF
Type: binding
From the text: *Rank ordering of compound affinity for PDZ1 were estimated based on chemical shift changes (DPPM) of the backbone amide of residue 147 on the [^15N,^1H] […] Kd values reported in parentheses were obtained by NMR titration experiments following the chemical shifts of the backbone amide of residue 147 at different ligand concentrations.

Binding affinity ranking	Structure (SMILES)
1 (1 for DPPM 0.00-0.02)	O=c1c2c([nH]c3nc(NCc4cccs4)nn13)CCC2 [cmpd3]
2 (2 for DPPM 0.02-0.04)	Cc1cc(NC(=O)c2nc3[nH]c4c(c(=O)n3n2)CCC4)c(C)cc1NC(=O)CCc1nnc(-c2cccc(C(F)(F)F)c2)o1 [112H9]
2 (2 for DPPM 0.02-0.04)	Cc1cc(=O)n2nc(NCc3ccccc3)nc2[nH]1 [cmpd1]
4 (4 for DPPM 0.06-0.08)	O=C(Nc1ccc(O)c(Cl)c1)c1nc2[nH]c3c(c(=O)n2n1)CCC3 [112F10]
1 (1 for DPPM 0.00-0.02)	CCCc1cc(=O)n2nc(COc3ccccc3)nc2[nH]1 [cmpd14]
2 (2 for DPPM 0.02-0.04)	Nc1ccc(NC(=O)c2nc3[nH]c4c(c(=O)n3n2)CCC4)cc1 [112G11]
4 (4 for DPPM 0.06-0.08)	Cc1cc(=O)n2nc(C(=O)Nc3ccc(O)c(F)c3)nc2[nH]1 [112G2]
1 (1 for DPPM 0.00-0.02)	O=C(Nc1ccc(O)cc1)c1nc2[nH]c3c(c(=O)n2n1)CCC3 [112E12]
2 (2 for DPPM 0.02-0.04)	Cc1cc(=O)n2nc(C(=O)Nc3ccc(O)cc3)nc2[nH]1 [112D11]
2 (2 for DPPM 0.02-0.04)	Cc1cc(=O)n2nc(C(=O)Nc3ccc4c(c3)OCCO4)nc2[nH]1 [cmpd7]
1 (1 for DPPM 0.00-0.02)	O=c1[nH]c2sc3c(c2c2ncnn12)CCCC3 [cmpd6]
4 (4 for DPPM 0.06-0.08)	Cc1cc(NC(=O)c2nc3[nH]c4c(c(=O)n3n2)CCC4)c(C)cc1NC(=O)CCc1nnc(-c2ccccc2)o1 [113B7]
6 (6 for DPPM above 0.1)	Cc1cc(=O)n2nc(C(=O)Nc3cc(Cl)c(N)cc3Cl)nc2[nH]1 [112G4]
4 (4 for DPPM 0.06-0.08)	Cc1cc(=O)n2nc(SCc3ccccc3)nc2[nH]1 [cmpd4]
3 (3 for DPPM 0.04-0.06)	O=c1c2c([nH]c3nc(CCc4ccccc4)nn13)CCC2 [cmpd13]
N.B.	Cc1cc(NC(=O)c2nc3[nH]c4c(c(=O)n3n2)CCC4)c(C)cc1NC(=O)Cc1ccc(-c2ccccc2)cc1 [113B9]
2 (2 for DPPM 0.02-0.04)	O=C(Nc1ccc(O)c(F)c1)c1nc2[nH]c3c(c(=O)n2n1)CCC3 [112F12]
3 (3 for DPPM 0.04-0.06)	Cc1cc(=O)n2nc(CCc3ccccc3)nc2[nH]1 [cmpd2]
4 (4 for DPPM 0.06-0.08)	Cc1cc(=O)n2nc(COc3ccccc3)nc2[nH]1 [30A9]
6 (6 for DPPM above 0.1)	Cc1cc(=O)n2nc(C(=O)Nc3cc(Cl)c(O)c(Cl)c3)nc2[nH]1 [112G1]
1 (1 for DPPM 0.00-0.02)	Cc1cc(=O)n2nc(C(=O)Nc3ccc(N)cc3)nc2[nH]1 [112E7]
4 (4 for DPPM 0.06-0.08)	Cc1cc(=O)n2nc(C(=O)Nc3cccc(Cl)c3)nc2[nH]1 [cmpd10]
5 (5 for DPPM 0.08-0.1)	Cc1c(C)c(NC(=O)c2nc3[nH]c4c(c(=O)n3n2)CCC4)c(C)c(C)c1N [113B8]
1 (1 for DPPM 0.00-0.02)	COc1ccc(Br)c(-c2nnc(CCC(=O)Nc3cc(C)c(NC(=O)c4nc5[nH]c6c(c(=O)n5n4)CCC6)cc3C)o2)c1 [113B12]
3 (3 for DPPM 0.04-0.06)	Cc1cc(=O)n2nc(C(=O)Nc3ccc4c(c3)OCO4)nc2[nH]1 [cmpd9]
3 (3 for DPPM 0.04-0.06)	Cc1cc(NC(=O)c2nc3[nH]c4c(c(=O)n3n2)CCC4)c(C)cc1NC(=O)CCc1nnc(-c2ccsc2)o1 [113B11]
5 (5 for DPPM 0.08-0.1)	O=c1c2c([nH]c3nc(COc4ccccc4)nn13)CCC2 [cmpd11]
2 (2 for DPPM 0.02-0.04)	Cc1[nH]c2nc(C(=O)NCc3ccccc3)nn2c(=O)c1C [cmpd5]
1 (1 for DPPM 0.00-0.02)	Cc1cc(O)n2nc(C(=O)Nc3ccc(O)cc3)nc2n1 [112F1]
3 (3 for DPPM 0.04-0.06)	COc1cccc(NC(=O)c2nc3[nH]c(C)cc(=O)n3n2)c1 [cmpd8]

Each compound was assayed on DU-145 and PC3-ML PCSCs (assay: Live/Dead chemosensitivity of PCSCs with STAT3 inhibitor). Conditions: STAT3 inhibitor with docetaxel or trichostatin-A.
Type: cell-based, human
Description: Live/Dead cell imaging was performed to assess fluorescence based cell viability. Staining was performed as per the manufacturer's directions (Invitrogen™), which was followed by imaging utilizing laser confocal microscopy (Leica©). The images were analyzed by Zeiss© ZEN software. Docetaxel, STATTIC and Trichostatin-A (TSA) were obtained from Sigma. The PCSCs were serum-starved for 24 h and then treated with the drugs for 48 h at a 10 μM concentration (unless mentioned otherwise) prior to assessing the sensitivity of PCSCs to these drugs. DMSO treated cells were used as control. In vitro PDZ1i treatments occurred at 25 μM concentration. In vivo PDZ1i treatments occurred at 25 mg/kg body weight of the mice, 3 times a week for a month.

Structure (SMILES)	effect on PCSC chemosensitivity
O=[N+]([O-])c1ccc2c(c1)S(=O)(=O)C=C2 [STATTIC]	caused chemosensitivity to both docetaxel and trichostatin-A

— US20230066830A1, “METHODS AND COMPOSITIONS FOR INDUCING APOPTOSIS IN CANCER STEM CELLS” (VIRGINIA COMMONWEALTH UNIVERSITY, priority 2019, published 2023)
